These results are taken from patent US7723355B2, “7,8-dihydro-1,6-naphthyridin-5(6H)-ones and related bicyclic compounds as inhibitors of dipeptidyl peptidase IV and methods” (Bristol-Myers Squibb Company, priority 2006, dated 2010).

Where a name gives a salt, the structure may show the parent alone.

The target of this assay is T1, human DPP-4 (Homo sapiens, UniProt P27487).
T1 construct: during isolation the entire transmembrane domain (including His tag) is removed by proteases present in the CHO cells; His tag (enterokinase-cleavable, from pcDNA4/HisMax) (N, cleaved yes); made in house
T1 sequence (P27487 29-766 limits assumed): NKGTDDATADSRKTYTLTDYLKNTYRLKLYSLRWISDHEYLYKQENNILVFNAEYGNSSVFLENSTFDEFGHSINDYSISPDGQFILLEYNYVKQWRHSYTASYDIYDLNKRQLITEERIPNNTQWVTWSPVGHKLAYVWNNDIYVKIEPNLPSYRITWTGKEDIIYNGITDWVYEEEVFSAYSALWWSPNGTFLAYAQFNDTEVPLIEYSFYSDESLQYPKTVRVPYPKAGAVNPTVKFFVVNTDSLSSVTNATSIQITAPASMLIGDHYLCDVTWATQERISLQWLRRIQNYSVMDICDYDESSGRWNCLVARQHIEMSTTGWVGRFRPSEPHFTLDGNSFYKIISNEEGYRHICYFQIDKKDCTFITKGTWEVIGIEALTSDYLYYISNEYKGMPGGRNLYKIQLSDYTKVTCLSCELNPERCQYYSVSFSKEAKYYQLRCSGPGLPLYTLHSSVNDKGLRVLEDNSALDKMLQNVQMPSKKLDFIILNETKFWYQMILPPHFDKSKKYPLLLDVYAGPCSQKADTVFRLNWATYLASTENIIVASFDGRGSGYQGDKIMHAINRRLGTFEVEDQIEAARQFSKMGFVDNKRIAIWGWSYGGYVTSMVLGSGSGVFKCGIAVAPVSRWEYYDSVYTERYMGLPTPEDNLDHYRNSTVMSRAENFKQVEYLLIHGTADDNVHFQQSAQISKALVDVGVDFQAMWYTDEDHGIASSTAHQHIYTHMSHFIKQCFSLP
As to the kind of experiment: DPP-4 inhibition assay (cleavage of pseudosubstrate Gly-Pro-pNA, absorbance at 405 nm). Particulars: recombinant human DPP-4, steady state, Gly-Pro-pNA 120 or 1000 μM, pH 7.4, 40 min preincubation; IC50 converted to Ki assuming competitive inhibition; read-out: DPP4 Ki. The class given is biochemical. As to the method:
DPP-4 inhibitory activity of the compounds of the present invention may be determined by use of an in vitro assay system which measures the degree in inhibition of DPP-4-mediated cleavage of an appropriate substrate or pseudo-substrate. Inhibition constants (Ki values) for the DPP-4 inhibitors of the invention may be determined by the method described in the experimental section below.
To generate human DPP-4, PCR (Red-tag polymerase, Sigma) was performed on Human cDNA from placenta (Clontech) using two primers, […] (SEQ ID NO:1) and […] (SEQ ID NO:2), based on the nucleotide sequence of the human clone (accession number M74777). PCR products were cloned into the pcDN4/HisMax TOPO vector (Invitrogene). For stable transfection of CHO-DG44 cells, DPP4 was rePCRed using primers […] (SEQ ID NO:3) and […] (SEQ ID NO:4) to generate KpnI and XhoI sites. The KpnI and XhoI sites were used to extract the N-terminal His tagged gene. The His tag, which could be cleaved and removed by Enterokinase, was included to allow purification using the TALON affinity column. The gene was then ligated into the KpnI and XhoI sites of the pD16 vector for stable transfection. Stable cell lines were generated by transfecting the expression vector into Chinese hamster ovary (CHO-DG44) cells using electroporation. The CHO-DG44 cell line was grown in PFCHO media supplemented with HT (glycine, hypoxanthine and thymidine, Invitrogene), glutamine and Recombulin (ICN). Then 1×10^7 cells/ml were collected, transfected with 60 μg of DNA using electroporation at 300V, and then transferred to a T75 flask. On the third day following transfection, the HT supplement was removed and selection was initiated with methotrexate (MTX, 10 nM, ICN). After a further 10 days the cells were plated into individual wells of 96 well plates. Every 10 days the concentration of MTX was increased two to three fold, up to a maximum of 400 nM. Final stable cell line selection was based on yield and activity of the expressed protein.
An attempt to purify recombinant DPP-4 using Talon resin was not efficient, resulting in small yields, with most of the DPP activity passing through the column. Therefore, protein was further purified using conventional anion exchange (Sepharose Q), gel filtration (S-200) and high resolution MonoQ columns. The final protein yielded a single band on SDS-PAGE gels. Amino acid sequence analysis indicated two populations of DPP-4 in the sample. One portion of the protein had 27 amino acids truncated from the N-terminus, while the other was lacking the N-terminal 37 amino acids. […] Total protein concentration was measured using the Bradford dye method and the amount of the active DPP-4 was determined by titrating the enzyme with a previously characterized inhibitor (Ki=0.4 nM).
Inhibition of human DPP-4 activity was measured under steady-state conditions by following the absorbance increase at 405 nm upon the cleavage of the pseudosubstrate, Gly-Pro-pNA. Assays were performed in 96-well plates using a Thermomax plate reader. […] To ensure steady-state conditions for slow-binding inhibitors, enzyme was preincubated with the compound for 40 minutes prior to substrate addition, to initiate the reaction.
Inhibitor potency was evaluated by fitting inhibition data to the binding isotherm:
[formula] where vi is the initial reaction velocity at different concentrations of inhibitor I; v is the control velocity in the absence of inhibitor, range is the difference between the uninhibited velocity and background; background is the rate of spontaneous substrate hydrolysis in the absent of enzyme, n is the Hill coefficient.
Calculated IC50s at each substrate concentration were converted to Ki assuming competitive inhibition according to:
All inhibitors were competitive as judged by a very good agreement of Ki values obtained from the assays at high and low substrate concentrations. […]
In general, Ki refers to the dissociation constant of the complex between target and ligand, obtained from inhibition or displacement. Take `Cc1nc2c(c(-c3ccc(Cl)cc3Cl)c1CN)C(=O)N(CC(=O)N(C)C)CC2` (single isomer, unassigned) [Example 2, TFA salt]: the Ki was found to be 2.01 nM. Regarding `Cc1nc2c(c(-c3ccccc3Cl)c1CN)C(=O)N(CC(=O)N(C)C)CC2` (single isomer, unassigned) [Example 3, TFA salt], the Ki worked out at 37.8 nM. In the case of `Cc1nc2c(c(-c3ccc(Cl)cc3Cl)c1CN)C(=O)N(CC(=O)N(C)C)CC2` (single isomer, unassigned) [Example 4, TFA salt], the Ki is 39.7 nM. For `Cc1nc2c(c(-c3ccccc3Cl)c1CN)C(=O)N(CC(=O)N(C)C)CC2` (single isomer, unassigned) [Example 5, TFA Salt], the Ki is greater than 100 nM. In the case of `Cc1nc2c(c(-c3ccc(Cl)cc3Cl)c1CN)C(=O)NCC2` [Example 1, 3-(Aminomethyl)-4-(2,4-dichlorophenyl)-2-methyl-7,8-dihydro-1,6-naphthyridin-5(6H)-one HCl salt], the Ki was determined as 6.9 nM. Consider `Cc1nc2c(c(-c3ccc(Cl)cc3Cl)c1CN)C(=O)N(CC(N)=O)CC2` [Example 6, (S)-2-(3-(Aminomethyl)-4-(2,4-dichlorophenyl)-2-methyl-5-oxo-7,8-dihydro-1,6-naphthyridin-6(5H)-yl)acetamide TFA salt], for which the Ki came to 3.44 nM. For the compound `CCN(CC)C(=O)CN1CCc2nc(C)c(CN)c(-c3ccc(Cl)cc3Cl)c2C1=O` [Example 8, (S)-2-(3-(Aminomethyl)-4-(2,4-dichlorophenyl)-2-methyl-5-oxo-7,8-dihydro-1,6-naphthyridin-6(5H)-yl)-N,N-diethylacetamide TFA salt], the Ki amounted to 3.82 nM. `Cc1nc2c(c(-c3ccc(Cl)cc3Cl)c1CN)C(=O)N(CC(=O)N1CCCC1)CC2` [Example 9, (S)-3-(Aminomethyl)-4-(2,4-dichlorophenyl)-2-methyl-6-(2-oxo-2-(pyrrolidin-1-yl)ethyl)-7,8-dihydro-1,6-naphthyridin-5(6H)-one TFA salt]: the Ki was determined as 3.5 nM. Consider `Cc1nc2c(c(-c3ccc(Cl)cc3Cl)c1CN)C(=O)N(CC(=O)N1CCCCC1)CC2` [Example 10, (S)-3-(Aminomethyl)-4-(2,4-dichlorophenyl)-2-methyl-6-(2-oxo-2-(piperidin-1-yl)ethyl)-7,8-dihydro-1,6-naphthyridin-5(6H)-one TFA salt], for which the Ki was 3.87 nM. With `Cc1nc2c(c(-c3ccc(Cl)cc3Cl)c1CN)C(=O)N(CC(=O)N1CCC(N3CCCCC3=O)CC1)CC2` [Example 11, (S)-3-(Aminomethyl)-4-(2,4-dichlorophenyl)-2-methyl-6-(2-oxo-2-(2-oxo-1,4′-bipiperidin-1′-yl)ethyl)-7,8-dihydro-1,6-naphthyridin-5(6H)-one TFA salt], the Ki was found to be 49.2 nM.

Turning to `Cc1nc2c(c(-c3ccc(Cl)cc3Cl)c1CN)C(=O)N(CC(=O)N1CCOCC1)CC2` [Example 12, (S)-3-(Aminomethyl)-4-(2,4-dichlorophenyl)-2-methyl-6-(2-morpholino-2-oxoethyl)-7,8-dihydro-1,6-naphthyridin-5(6H)-one TFA salt], the Ki amounted to 4.43 nM.

Turning to `Cc1nc2c(c(-c3ccc(Cl)cc3Cl)c1CN)C(=O)N(C)CC2` [Example 13, 3-(Aminomethyl)-4-(2,4-dichlorophenyl)-2,6-dimethyl-7,8-dihydro-1,6-naphthyridin-5(6H)-one TFA salt], the Ki worked out at 7.72 nM.

For `Cc1nc2c(c(-c3ccc(Cl)cc3Cl)c1CN)C(=O)N(C[C@@H]1CCCO1)CC2` [Example 14, 3-(Aminomethyl)-4-(2,4-dichlorophenyl)-2-methyl-6-(((S)-tetrahydrofuran-2-yl)methyl)-7,8-dihydro-1,6-naphthyridin-5(6H)-one TFA salt], the inhibition constant Ki is 5.91 nM. `COCCN1CCc2nc(C)c(CN)c(-c3ccc(Cl)cc3Cl)c2C1=O` [Example 15, 3-(Aminomethyl)-4-(2,4-dichlorophenyl)-6-(2-methoxyethyl)-2-methyl-7,8-dihydro-1,6-naphthyridin-5(6H)-one TFA salt]: the Ki is 5.39 nM. The figure for `Cc1nc2c(c(-c3ccc(Cl)cc3Cl)c1CN)C(=O)N(CCO)CC2` [Example 16, 3-(Aminomethyl)-4-(2,4-dichlorophenyl)-6-(2-hydroxyethyl)-2-methyl-7,8-dihydro-1,6-naphthyridin-5(6H)-one TFA salt] is 18 nM; for `Cc1nc2c(c(-c3ccc(Cl)cc3Cl)c1CN)C(=O)N(c1ccccc1)CC2` [Example 17, 3-(Aminomethyl)-4-(2,4-dichlorophenyl)-2-methyl-6-phenyl-7,8-dihydro-1,6-naphthyridin-5(6H)-one TFA salt] it is 5 nM; for `COc1ccccc1N1CCc2nc(C)c(CN)c(-c3ccc(Cl)cc3Cl)c2C1=O` [Example 18, 3-(Aminomethyl)-4-(2,4-dichlorophenyl)-6-(2-methoxyphenyl)-2-methyl-7,8-dihydro-1,6-naphthyridin-5(6H)-one TFA Salt] it is 2.28 nM. On to `Cc1nc2c(c(-c3ccc(Cl)cc3Cl)c1CN)C(=O)NC(=O)C2` [Example 19, 3-(Aminomethyl)-4-(2,4-dichlorophenyl)-2-methyl-1,6-naphthyridine-5,7(6H,8H)-dione TFA Salt], for which the Ki came out at 9.35 nM.
